Measured values from patent US20080199517A1, “Composition and a process thereof” (priority 2007, published 2008).

Tested on: castrated male adolescent rats
Assay: Anabolic activity in castrated rats: organ weight
Format: in vivo, rats of Swiss Wistar strain
Settings: castrated animals, result in words
Method: Male Adolescent rats of Swiss Wistar strain of body weight 55 gms are chosen for this experiment and are castrated. The castrated groups are divided into 2 groups. • 1. Control group castrated animals n=6 • 2. Drug treated castrated animals treated with test compound at 25 mg/kg n=6
Both the groups are fed ad libitum food and water and observed for 28 days. Their serum at the beginning of the experiment and at the end of the experiment are drawn and checked for Total testosterone, and free testosterone. The animals are sacrificed at the end of the experiment and seminal vesicle; ventral Prostate and Levator Ani are removed and weighed. These organ weights are compound with the control animals.

Q: Which anabolic activity does the source give for `CC(COC1OC(CO)C(O)C(O)C1O)C(C)CC1(O)CC2CC3C4CC=C5CC(OC6OC(CO)C(O)C(O)C6OC6OC(C)C(O)C(O)C6O)CCC5(C)C4CCC3(C)C2C1C` (stereo not shown) [saponin of structural formula I] here?
A: does not showed any activity
